Laboratory results reported in patent US5346897A, “Agents for potentiating the effects of antitumor agents and combating multiple drug resistance” (Burroughs Wellcome Co., priority 1992, dated 1994).
Read-outs that look alike come from different tables or passages of the source. *1 amine or outer side, *2 acyl side, *3 side chain or, on linkers, in order; H or OH if unused. Where a SMILES comes first, the peptide text is derived from it. Bridges are numbered along the chain shown (N, C = ends). Roman numbers before positions name the chains, in order. [ ]: non-standard residue; d: D form. Actinocin(9to1) = Cc1c2oc3c(C)ccc(C(=O)[*:1])c3nc-2c(C(=O)[*:2])c(N)c1=O; NMeV = CN[C@H](C(=O)O)C(C)C; Sar = CNCC(=O)O

What was measured:
[1] = tested on: resistant sublines of murine leukemia cells; conditions: Tsuruo et al., Cancer Res.; cited from earlier work
[2] = tested on: Chinese hamster ovary (CHO) tissue culture cells (AuxB1 and C5S32); experiment: Cytotoxicity of Actinomycin D alone in Chinese hamster ovary cells (AuxB1 and C5S32); type: cell-based
[3] = tested on: C5S32 Chinese hamster ovary cells (drug resistant); experiment: In vitro cytotoxicity of potentiating agents in Chinese hamster ovary cells, multidrug resistant C5S32 line, MTT; type: cell-based; conditions: 96 h, Act D alone = 1.00
[4] = as above; type: cell-based; conditions: hamster, c5s32 cho cells, C5S32 drug resistant, no Act D, untreated = 1.00, read-out: Normalized absorbance (cell survival), potentiating agent alone, fraction of untreated culture
[5] = tested on: KB 3-1 human epidermoid carcinoma cells (wildtype); conditions: kb 3-1 cells, 96 h
Experimental: (§1) The procedure for assaying the cytotoxicity of potentiating agents with human KB epidermoid carcinoma cells is essentially the same as the assay procedure described above for use with Chinese hamster ovary cells. […] After 48 hours of incubation at 37° C., the media is changed and cells are treated with actinomycin D at 0.1 nM (3-1) or 20 nM (V-i). The test potentiating agent is introduced to one-half the untreated cultures and onehalf the Act D treated cultures at 1 and 10 μM. After 96 hours of additional incubation at 37° C, 0.5 mg/ml MTT dye is added, the cells are incubated for three hours, after which the cells are dissolved in DMSO, and the absorbance is then read at 570 nm.

[6] = tested on: AuxB1 Chinese hamster ovary cells (wildtype); experiment: in vitro; type: cell-based; conditions: auxb1 cho cells, 96 h
[7] = in vitro; type: cell-based, Chinese hamster; conditions: hamster, auxb1 cho cells
[8] = in vitro; conditions: human, kb 3-1 cells
Experimental: as §1

[9] = tested on: KB V-1 human epidermoid carcinoma cells (drug resistant); experiment: In vitro cytotoxicity of potentiating agents in human KB epidermoid carcinoma cells, drug resistant KB V-1, MTT; conditions: KB V-1 drug resistant, 96 h, Act D alone = 1.00
Experimental: as §1

[10] = as above; conditions: human, kb v-1 cells
Experimental: as §1

For COC(=O)C1=C(C)NC(C)=C(C(=O)OCCN(C)Cc2ccccc2)C1c1cccc([N+](=O)[O-])c1 (stereo not shown) [nicardipine], the “enhancement of the activity of antitumor agents against resistant sublines of murine leukemia cells” value (from here on “enhancement”) [1] is given as “enhance the activity of antitumor agents”.
In the case of CCN(CC)CCn1c(=O)c(Cc2ccc(OC)cc2)nc2ccccc21 [caroverine], the “enhancement” value [1] is given as “enhance the activity of antitumor agents”.
For COc1ccc([C@@H]2Sc3ccccc3N(CCN(C)C)C(=O)[C@@H]2OC(C)=O)cc1 [diltiazem], the “enhancement” value [1] is listed as “enhance the activity of antitumor agents”.
For COc1ccc(CCN(C)CCCC(C#N)(c2ccc(OC)c(OC)c2)C(C)C)cc1OC (stereo not shown) [Verapamil], the “enhancement” value [1] is given as “enhance the activity of antitumor agents”.
For CN1CCN(CCCN2c3ccccc3Sc3ccc(C(F)(F)F)cc32)CC1 [trifluoperazine], the “enhancement” value [1] is listed as “enhance the activity of antitumor agents”.
For C=C[C@H]1C[N@@]2CC[C@H]1C[C@@H]2[C@@H](O)c1ccnc2ccc(OC)cc12 [quinidine], the “enhancement” value [1] is given as “enhance the activity of antitumor agents”.
In the case of Cc1c2oc3c(C)ccc(C(=O)N[C@@H]4C(=O)N[C@H](C(C)C)C(=O)N5CCC[C@H]5C(=O)N(C)CC(=O)N(C)[C@@H](C(C)C)C(=O)O[C@@H]4C)c3nc-2c(C(=O)N[C@@H]2C(=O)N[C@H](C(C)C)C(=O)N3CCC[C@H]3C(=O)N(C)CC(=O)N(C)[C@@H](C(C)C)C(=O)O[C@@H]2C)c(N)c1=O [Actinomycin D] (I: T[dV]P[Sar][NMeV] / II: T[dV]P[Sar][NMeV]; ester I:1-I:C, II:1-II:C; linker I:N-II:N via Actinocin(9to1)), the “reduction in cell number below the value of completely untreated cultures” value ([2]; Act D alone (0.01 μM AuxB1, 0.5 μM C5S32), in most experiments) was 10-20% and the “resistance of C5S32 cells to Actinomycin D compared to the parental AuxB1 cell line” value ([2]; C5S32 vs AuxB1) was “about 200 fold”.
For CN(C)CCCN1c2ccccc2CCc2ccc(Cl)cc21 [clomipramine], the “enhancement” value [1] is given as “enhance the activity of antitumor agents”.
In the case of CCOC(=O)/C=C/c1cccc(/C(=C/CN2CCCC2)c2ccc(C)cc2)n1 [Compound (B), Ethyl (E)-3-{6-[3-pyrrolidino-l-(4-tolyl)prop-lE-enyl]-2-pyridyl}acrylate], the “Normalized absorbance (cell survival), potentiating agent + Act D, fraction of Act D alone” value (“Normalized absorbance … fraction of Act D alone” below) ([3]; potentiating agent 1 μM + Act D 0.5 μM) was 0.63, the “Normalized absorbance … fraction of Act D alone” value ([3]; potentiating agent 10 μM + Act D 0.5 μM) was 0.14 and the viability at 96 h, 1 µM ([4]; potentiating agent 1 μM) was 77%. For the same compound, the viability at 96 h, 10 µM ([4]; potentiating agent 10 μM) was 52%, the “Normalized absorbance … fraction of Act D alone” value ([5]; 1 µM) was 0.55 and the “Normalized absorbance … fraction of Act D alone” value ([5]; 10 µM) was 0.45. For the same compound, the “Normalized absorbance … fraction of Act D alone” value ([6]; 1 µM) was 0.63, the “Normalized absorbance … fraction of Act D alone” value ([6]; 10 µM) was 0.29 and the viability at 96 h, 1 µM [7] was 92%. The viability at 96 h, 10 µM [7] was 93%, the viability at 96 h, 1 µM [8] was 58% and the viability at 96 h, 10 µM [8] was 37%. The “Normalized absorbance … fraction of Act D alone” value ([9]; potentiating agent 1 μM + actinomycin D 20 nM) was 0.48, the “Normalized absorbance … fraction of Act D alone” value ([9]; potentiating agent 10 μM + actinomycin D 20 nM) was 0.04 and the viability at 96 h, 1 µM [10] was 36%. The viability at 96 h, 10 µM [10] was 14%.
